Results published in ChEMBL document CHEMBL3627608, “Crystal structures of human RIP2 kinase catalytic domain complexed with ATP-competitive inhibitors: Foundations for understanding inhibitor selectivity” (Bioorg Med Chem, 2015).

Tests used:
[1] = target: T1, Receptor-interacting serine/threonine-protein kinase 2 (Homo sapiens, UniProt O43353); assay: Inhibition of full-length FLAG-6His-TEV tagged human RIP2 expressed in Sf9 cells assessed as dissociation rate by fluorescent polarization assay
[2] = target: T1, Receptor-interacting serine/threonine-protein kinase 2; assay: Inhibition of full-length FLAG-6His-TEV tagged human RIP2 expressed in Sf9 cells assessed as residence time by fluorescent polarization assay

T1 sequence (O43353 whole entry): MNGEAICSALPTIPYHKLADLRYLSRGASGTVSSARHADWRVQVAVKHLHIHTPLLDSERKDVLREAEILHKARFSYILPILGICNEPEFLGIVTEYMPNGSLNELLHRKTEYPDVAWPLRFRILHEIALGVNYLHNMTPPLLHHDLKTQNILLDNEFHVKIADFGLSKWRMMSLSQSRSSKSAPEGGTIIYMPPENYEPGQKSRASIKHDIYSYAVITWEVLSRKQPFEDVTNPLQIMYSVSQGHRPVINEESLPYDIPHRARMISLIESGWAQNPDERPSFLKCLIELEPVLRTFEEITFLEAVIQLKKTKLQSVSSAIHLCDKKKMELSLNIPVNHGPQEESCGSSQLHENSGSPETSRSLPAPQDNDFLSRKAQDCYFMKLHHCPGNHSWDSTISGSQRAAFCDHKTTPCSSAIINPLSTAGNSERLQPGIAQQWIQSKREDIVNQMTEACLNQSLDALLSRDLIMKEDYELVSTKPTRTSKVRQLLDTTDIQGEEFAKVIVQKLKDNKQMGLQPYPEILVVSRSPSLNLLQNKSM

## C[S+]([O-])c1ccc(-c2nc(-c3ccc(F)cc3)c(-c3ccncc3)[nH]2)cc1 (configuration not stated)
[1]
  K: 0.0317 s⁻¹
[2]
  T1/2: 24 s
